How the values were obtained:
Conditions in all cases: 72 h
[1] = tested on: Caco-2; test: cell viability relative to DMSO; higher = less toxic
[2] = tested on: Calu-3; test: as above
[3] = tested on: HepG2; test: as above
[4] = tested on: U2OS; test: as above
[5] = tested on: Vero E6; test: as above
[6] = tested on: Caco-2; test: relative viability EC50 (midpoint between 100% and the lowest measured viability); higher = less toxic
[7] = tested on: Calu-3; test: as above
[8] = tested on: HepG2; test: as above
[9] = tested on: U2OS; test: as above
[10] = tested on: Vero E6; test: as above
[11] = tested on: Caco-2; test: drug sensitivity score (DSS) for viability; higher = more toxic; extreme values may be limits of the assay
[12] = tested on: Calu-3; test: as above
[13] = tested on: HepG2; test: as above
[14] = tested on: U2OS; test: as above
[15] = tested on: Vero E6; test: as above

| SMILES | cell viability ([1]; 1 nM) [%] | cell viability ([1]; 10 nM) [%] | cell viability ([1]; 100 nM) [%] | cell viability ([1]; 1000 nM) [%] | cell viability ([1]; 10000 nM) [%] | cell viability ([2]; 1 nM) [%] | cell viability ([2]; 10 nM) [%] | cell viability ([2]; 100 nM) [%] | cell viability ([2]; 1000 nM) [%] | cell viability ([2]; 10000 nM) [%] | cell viability ([3]; 1 nM) [%] | cell viability ([3]; 10 nM) [%] | cell viability ([3]; 100 nM) [%] | cell viability ([3]; 1000 nM) [%] | cell viability ([3]; 10000 nM) [%] | cell viability ([4]; 1 nM) [%] | cell viability ([4]; 10 nM) [%] | cell viability ([4]; 100 nM) [%] | cell viability ([4]; 1000 nM) [%] | cell viability ([4]; 10000 nM) [%] | cell viability ([5]; 1 nM) [%] | cell viability ([5]; 10 nM) [%] | cell viability ([5]; 100 nM) [%] | cell viability ([5]; 1000 nM) [%] | cell viability ([5]; 10000 nM) [%] | relative viability EC50 [6] [µM] | relative viability EC50 [7] [µM] | relative viability EC50 [8] [µM] | relative viability EC50 [9] [µM] | relative viability EC50 [10] [µM] | drug sensitivity score [11] | drug sensitivity score [12] | drug sensitivity score [13] | drug sensitivity score [14] | drug sensitivity score [15] |
| --- | --- | --- | --- | --- | --- | --- | --- | --- | --- | --- | --- | --- | --- | --- | --- | --- | --- | --- | --- | --- | --- | --- | --- | --- | --- | --- | --- | --- | --- | --- | --- | --- | --- | --- | --- |
| CO[C@@H](C)Cn1c(=O)n(C)c2cnc3ccc(-c4cncc(C(C)(C)O)c4)cc3c21 | 97.2 | 93.4 | 82.4 | 35.6 | 25.9 | 108 | 89.8 | 68 | 26.9 | 18 | 94.4 | 99.7 | 95.8 | 56.9 | 14.8 | 108 | 102 | 84 | 25.7 | 8.3 | 96.4 | 101 | 87.2 | 54.3 | 28.9 | 0.238 | 0.144 | 0.974 | 0.331 | 0.514 | 14 | 17.4 | 9.8 | 15.7 | 10.2 |
| CN1C2CCCC1CC(NC(=O)c1nn(C)c3ccccc13)C2 (stereo not given) [granisetron] | 96.7 | 99.1 | 102 | 105 | 107 | 108 | 106 | 110 | 92.4 | 105 | 109 | 98.1 | 82.7 | 95.1 | 92.7 | 105 | 95.8 | 99.9 | 97.8 | 98.1 | 111 | 102 | 99.9 | 102 | 96.2 | > 10 | > 10 | > 10 | > 10 | > 10 | 0 | 0 | 0 | 0 | 0 |
| CCn1c(N)c(C(=O)NC)c(=O)c2ccc(C#C[C@@](C)(O)COC)nc21 | 105 | 92.8 | 104 | 94.2 | 92.5 | 89.4 | 100 | 103 | 98.3 | 109 | 92.6 | 102 | 93.2 | 105 | 104 | 102 | 96.9 | 98.3 | 97.8 | 97.4 | 94.1 | 98.6 | 94.8 | 99.1 | 104 | > 10 | > 10 | > 10 | > 10 | > 10 | 0 | 0 | 0 | 0 | 0 |
| COc1ccc(CC2NCCc3cc(OC)c(OC)cc32)cc1OC (stereo not given) [tetrahydropapaverine] | 99.8 | 99 | 99.5 | 102 | 94.4 | 95.9 | 86.9 | 99.7 | 83.3 | 98.7 | 99.1 | 99.9 | 91.5 | 98.6 | 103 | 99.5 | 93.2 | 103 | 90.9 | 96.9 | 94.3 | 99.8 | 95.3 | 98.6 | 104 | > 10 | > 10 | > 10 | > 10 | > 10 | 0 | 0 | 0 | 0 | 0 |
| CC(C)SC(=N)N [S-isopropylisothiourea] | 99 | 95 | 96.7 | 105 | 91.9 | 100 | 99.5 | 102 | 97.1 | 84.8 | 101 | 109 | 103 | 94.5 | 108 | 96.9 | 98.2 | 96.3 | 103 | 102 | 103 | 99.2 | 99.5 | 89.9 | 97.2 | > 10 | > 10 | > 10 | > 10 | > 10 | 0 | 0.5 | 0 | 0 | 0 |
| COc1ccc2c3c1O[C@H]1C[C@@H](O)C=C[C@@]31CCN(C)C2 [galantamine] | 90.2 | 104 | 106 | 112 | 108 | 96.9 | 91.2 | 103 | 104 | 99.9 | 84.5 | 105 | 85.8 | 102 | 100 | 101 | 95.4 | 96.5 | 104 | 104 | 102 | 99.1 | 103 | 90.8 | 93.6 | > 10 | > 10 | > 10 | > 10 | > 10 | 0 | 0 | 0 | 0 | 0 |
| Cc1cc(NC(=O)Nc2ccc(N(C)C)cc2)c2cc(F)cc(F)c2n1 | 100 | 103 | 99.8 | 89.5 | 91.6 | 95.2 | 98.8 | 101 | 105 | 94.7 | 103 | 93.7 | 96.4 | 93.1 | 80.1 | 98.4 | 104 | 99.8 | 103 | 91.9 | 101 | 95.8 | 100 | 97.9 | 100 | > 10 | > 10 | > 10 | > 10 | > 10 | 0.1 | 0 | 0.8 | 0 | 0 |
| O[C@@H]1CCCC[C@H]1N1CCC(c2ccccc2)CC1 (racemic) [vesamicol] | 95.3 | 83.6 | 99.5 | 92.9 | 95.2 | 101 | 106 | 113 | 105 | 97.2 | 85.7 | 111 | 102 | 97.1 | 98 | 95.2 | 96.5 | 102 | 101 | 101 | 94 | 95.6 | 93.3 | 101 | 102 | > 10 | > 10 | > 10 | > 10 | > 10 | 0 | 0 | 0 | 0 | 0 |
| CC(N)Cc1ccc(O)cc1 (stereo not given) [hydroxyamphetamine] | 107 | 92.8 | 94.2 | 98.7 | 99.5 | 92.5 | 94.4 | 98.7 | 100 | 107 | 102 | 103 | 93.4 | 93.7 | 96 | 98.6 | 101 | 96.2 | 102 | 94.5 | 99.9 | 102 | 99.4 | 95.1 | 104 | > 10 | > 10 | > 10 | > 10 | > 10 | 0 | 0 | 0 | 0 | 0 |
| CC(C)(C)C(=O)OCOP(=O)(COCCn1cnc2c(N)ncnc21)OCOC(=O)C(C)(C)C [adefovir-dipivoxil] | 93.7 | 87.6 | 87.5 | 95.4 | 75.6 | 92.9 | 97.6 | 106 | 95.5 | 47.6 | 106 | 93.8 | 101 | 49.1 | 25.2 | 96.2 | 101 | 97.8 | 102 | 75.5 | 101 | 106 | 107 | 99.7 | 89.3 | > 10 | 2.46 | 0.741 | > 10 | > 10 | 1.9 | 3.5 | 10.1 | 0.8 | 0 |
| COc1ccc(CNC(=O)c2sc3nc(C)cc(C)c3c2N)cc1 | 95.8 | 96.7 | 93.6 | 97.1 | 93.5 | 98.7 | 98.8 | 98.2 | 97.6 | 101 | 83.3 | 94.4 | 93.9 | 91.9 | 107 | 94.1 | 92.1 | 92.5 | 96.4 | 94.7 | 95.8 | 101 | 106 | 93.2 | 94.4 | > 10 | > 10 | > 10 | > 10 | > 10 | 0 | 0 | 0 | 0 | 0 |
| C/C=C1\[C@H]2C=C(C)C[C@]1(N)c1ccc(=O)[nH]c1C2 [(-)-Huperzine A] | 103 | 97.7 | 90.6 | 100 | 107 | 91 | 96.7 | 96.1 | 106 | 101 | 106 | 97.4 | 102 | 93 | 97.5 | 95.1 | 101 | 98.8 | 103 | 98.3 | 93 | 96.8 | 98 | 90.7 | 107 | > 10 | > 10 | > 10 | > 10 | > 10 | 0 | 0 | 0 | 0 | 0 |
| COC(=O)C1=C(C#N)NC(C)=C(C(=O)OC(C)C)C1c1cccc([N+](=O)[O-])c1 (stereo not given) [nilvadipine] | 96.1 | 84.7 | 92.7 | 94.1 | 96 | 90.9 | 101 | 90.8 | 97.5 | 120 | 108 | 98.6 | 109 | 96.1 | 95 | 96.6 | 98.4 | 97 | 96.7 | 104 | 95.9 | 93.6 | 100 | 97.9 | 109 | > 10 | > 10 | > 10 | > 10 | > 10 | 0 | 0 | 0 | 0 | 0 |
| C[C@@]1(F)[C@H](O)[C@@H](CO)O[C@H]1n1ccc(N)nc1=O [PSI-6130] | 94.8 | 96.8 | 94.7 | 103 | 108 | 99.3 | 99.6 | 96 | 100 | 96.7 | 103 | 91.8 | 106 | 100 | 107 | 95.5 | 101 | 96.9 | 100 | 107 | 101 | 93.3 | 100 | 92.5 | 106 | > 10 | > 10 | > 10 | > 10 | > 10 | 0 | 0 | 0 | 0 | 0 |
